Measured values from patent US20090131527A1, “NOVEL ANTHRANILIC ACID DERIVATIVES AND CHLORIDE CHANNEL BLOCKING AGENT CONTAINING THE SAME” (Korea Institute of Science and Technology, priority 2007, published 2009).

Biological target: Cl− channel activated by Ca2+ (calcium ion-activated chloride channels) (Xenopus laevis, UniProt B5SVV6)
Assay: Two-electrode voltage clamp recording of Ca2+-activated chloride current in Xenopus Laevis eggs (ionomycin/thapsigargin treated)
Assay type: cell-based
Settings: for IC50: calcium ion-activated chloride channel current in Xenopus Laevis eggs, activated with 5 mM Ca2+, 15 s pretreatment with chemical; for inhibitory activity of calcium activated chloride channel current (in words): compared to the conventional anthranilic acid derivatives flufenamic acid and mefenamic acid / known inhibitors
Procedure: The prepared eggs were treated with 10 μM ionomycin (Sigma) for 30 min.
An intracellular solution was prepared by adding 0.5 mM EGTA and 1 μM Chelerythrine (Sigma) into a 1 M KCl solution, which was filled in glass microelectrodes. One of the above prepared eggs was placed on the chamber and two electrodes were inserted into opposite sides of the egg while the recording solution was poured. Current was measured by performing two-electrode voltage clamp recording according to a protocol suitable for the purpose of the experiment.
In order to activate a Ca^2+-dependent chloride channel, 5 mM Ca^2+ was treated first to the above eggs for 5 seconds. After being washed with the above recording solution for 50 seconds, and pretreated with the chemicals in the below Table 1 (treated in the order of […]) for 15 seconds, the eggs were treated with 5 mM Ca^2+ and the above chemicals (same amount as above) to measure the inhibitory concentrations of each chemical by comparing the current measured with 5 mM Ca^2+.

Cl− channel activated by Ca2+ (calcium ion-activated chloride channels), sequence (B5SVV6 entry or part of it): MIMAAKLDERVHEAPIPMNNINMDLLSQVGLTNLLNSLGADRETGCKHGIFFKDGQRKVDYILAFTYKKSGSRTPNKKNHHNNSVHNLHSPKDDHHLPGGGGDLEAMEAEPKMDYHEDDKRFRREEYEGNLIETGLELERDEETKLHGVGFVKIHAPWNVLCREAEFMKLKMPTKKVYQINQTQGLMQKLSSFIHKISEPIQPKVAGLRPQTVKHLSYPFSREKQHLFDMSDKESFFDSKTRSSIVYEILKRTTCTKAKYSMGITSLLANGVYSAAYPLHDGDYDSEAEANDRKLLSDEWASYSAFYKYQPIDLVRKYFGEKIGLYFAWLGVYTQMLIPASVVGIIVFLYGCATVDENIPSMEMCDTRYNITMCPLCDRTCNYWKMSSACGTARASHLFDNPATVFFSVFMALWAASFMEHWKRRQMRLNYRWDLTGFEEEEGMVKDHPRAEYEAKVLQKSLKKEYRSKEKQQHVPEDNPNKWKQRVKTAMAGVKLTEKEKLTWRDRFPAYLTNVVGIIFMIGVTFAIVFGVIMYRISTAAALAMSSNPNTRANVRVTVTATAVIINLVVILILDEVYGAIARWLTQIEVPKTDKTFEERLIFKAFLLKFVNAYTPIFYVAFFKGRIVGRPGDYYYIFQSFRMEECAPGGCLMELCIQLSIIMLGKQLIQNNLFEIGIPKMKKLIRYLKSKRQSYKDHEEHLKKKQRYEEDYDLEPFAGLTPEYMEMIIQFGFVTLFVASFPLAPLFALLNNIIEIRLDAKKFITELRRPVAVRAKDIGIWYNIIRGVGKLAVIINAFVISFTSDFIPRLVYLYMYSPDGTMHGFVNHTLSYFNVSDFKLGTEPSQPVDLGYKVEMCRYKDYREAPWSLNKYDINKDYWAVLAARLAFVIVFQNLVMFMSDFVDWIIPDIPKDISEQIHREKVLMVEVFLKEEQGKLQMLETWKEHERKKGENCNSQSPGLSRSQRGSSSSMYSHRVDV

SMILES | IC50 [µM] | inhibitory activity of calcium activated chloride channel current (in words)
O=C(O)c1ccccc1Nc1ccc(Cl)cc1 [N-(4-Chlorophenyl)anthranilic acid] | 11.3 | notably high inhibitory activity
COc1ccc(Nc2ccccc2C(=O)O)cc1 [N-(4-Methoxyphenyl)anthranilic acid] | 102 | 
CC(C)(C)c1ccc(Nc2ccccc2C(=O)O)cc1 [N-(4-tert-Butylphenyl)anthranilic acid] | 22.9 | notably high inhibitory activity
O=C(O)c1ccccc1Nc1ccc(F)c(C(F)(F)F)c1 [N-(4-Fluoro-3-trifluoromethylphenyl)anthranilic acid] | 14.7 | notably high inhibitory activity
O=C(O)c1ccccc1Nc1ccc([N+](=O)[O-])cc1 [N-(4-Nitrophenyl)anthranilic acid] | 17.8 | notably high inhibitory activity
O=C(O)c1ccccc1Nc1ccccc1 [N-Phenylanthranilic acid, reference compound] | 88.1 | 
CC(C)c1ccc(Nc2ccccc2C(=O)O)cc1 [N-(4-Isopropylphenyl)anthranilic acid] | 17 | 
O=C(O)c1ccccc1Nc1ccc(F)cc1 [N-(4-Fluorophenyl)anthranilic acid] | 63.1 | 
Cc1ccc(Nc2ccccc2C(=O)O)cc1 [N-(4-Methylphenyl)anthranilic acid] | 55.3 | 
O=C(O)c1ccccc1Nc1cccc(C(F)(F)F)c1 [Flufenamic acid, reference compound] | 35.4 | 
O=C(O)c1ccccc1Nc1ccc(C(F)(F)F)cc1 [N-(4-Trifluoromethylphenyl)anthranilic acid] | 6 | notably high inhibitory activity
O=C(O)c1c2ccccc2cc2ccccc12 [9-AC, 9-anthracene carboxylic acid, reference compound] | 94.3 | 
O=S(=O)(O)c1cc(N=C=S)ccc1C=Cc1ccc(N=C=S)cc1S(=O)(=O)O [DIDS, disodium 4,4′-diisothiocyano-2,2′-stilbenedisulphonic acid, reference compound] | 10.7 | 
O=C(O)c1cccnc1Nc1cccc(C(F)(F)F)c1 [Niflumic acid, reference compound] | 37.3 | 
O=C(O)c1ccccc1Nc1ccccc1C(F)(F)F [N-(2-Trifluoromethylphenyl)anthranilic acid] | 29.5 | notably high inhibitory activity
Cc1cccc(Nc2ccccc2C(=O)O)c1C [Mefenamic acid, reference compound] | 44.5 | 
O=C(O)c1ccccc1Nc1cccc([N+](=O)[O-])c1 [N-(3-Nitrophenyl)anthranilic acid] | 32.1 | notably high inhibitory activity
O=C(O)c1cc([N+](=O)[O-])ccc1NCCCc1ccccc1 [NPPB, 5-nitro-2-(3-phenylpropylamino)benzoic acid, reference compound] | 32.3 | 
O=C(O)c1cc([N+](=O)[O-])ccc1Nc1ccc([N+](=O)[O-])cc1 [5-Nitro-N-(4-nitrophenyl)anthranilic acid] | 15.4 | notably high inhibitory activity
